Measured values: patent US20190151289A1, “Identification of Small Molecule Inhibitors of Jumonji AT-Rich Interactive Domain 1A (JARID1A) Histone Demethylase” (YALE UNIVERSITY, priority 2016, published 2019)
Read-outs that look alike come from different tables or passages of the source.

What was measured:
full-length FLAG-KDM5A = target: T1, full-length FLAG-KDM5A (Homo sapiens, UniProt P29375); assay: AlphaScreen KDM5A demethylation assay (bio-H3K4me3 peptide); assay type: biochemical
T1 construct: Sf21 insect cells were infected with baculovirus to express full-length FLAG-KDM5A; made in house; host or cells: Sf21 insect cells (baculovirus)
Description: (§1) Histone demethylase assays were performed using previously described methods (Sayegh et al., 2013, J. Biol. Chem. 9408-9417), with the exception of all enzyme reactions containing 125 μM α-KG. Enzymes were used at the following approximate concentrations in validation experiments, chosen based on their activity in AlphaScreen assays: 19 nM FLAG-KDM5A, 15 nM FLAG-KDM5B, 6 nM FLAG-KDM5C, 29 nM His-FLAG-KDM6A, and 16 nM FLAG-KDM6B. 24 nM FLAG-KDM5A was used for Km determination experiments. Reactions were carried out for 1 hour, or were stopped by addition of 30 mM EDTA every 5 minutes for determining enzyme kinetics. Km values were calculated using the Michaelis-Menten non-linear regression analysis on GraphPad Prism 6.0 software. The concentration of DMSO in demethylation reactions was 0.05%. For reactions with catalase, catalase (Sigma C30) or an equal volume of dilution buffer was added to the peptide-containing buffer before addition of the demethylase. The final concentration of catalase in the reactions was 0.01 mg/ml.
(§2) The AlphaScreen general IgG (protein A) detection kit from PerkinElmer Life Sciences was used as described previously (Sayegh et al., 2013, J. Biol. Chem. 9408-9417). The luminescence emission was recorded at 570 nm using the AlphaScreen optic module on a Pherastar (BMG Labtech) or Envision (PerkinElmer Life Sciences) microplate reader.
8,861 compounds from the ChemBridge MW-Set, ChemBridge DIVERSet, MicroSource Gen-Plus, MicroSource Pure Natural Products, NIH Clinical Collection, and Enzo Epigenetics libraries were screened for inhibition of FLAG-KDM5A demethylase activity. Compounds were dissolved in DMSO and added at 20 μM to 384-well white plates (Corning 3574) containing 64 nM bio-H3K4me3 peptide in demethylase buffer prior to addition of 13 nM FLAG-KDM5A. Hits were selected at a threshold of three standard deviations (˜30% inhibition). A counter-screen was performed with the hits to eliminate any non-specific compounds. For this, 20 μM compounds were added to 64 nM bio-H3K4me2 peptide in demethylase buffer with no enzyme. Any hits that interfered with the positive signal detection were eliminated. Dose-response curves were performed on selected hits using 0.1-11 μM of compound. Further validation of top hits was performed using 5 μM of each compound or a dose-response curve using 0.05-50 μM of the compound.
Fresh compounds were ordered to confirm identity. IC50 curves were generated for YUKA1 and YUKA2 using 0.05-50 μM compound in 1 hour reactions. IC50 values were calculated by log transformation and non-linear regression log (inhibitor) versus response (three parameters) using Graphpad Prism 6.0 software. Percent activity of KDM5A was calculated for each data point by subtracting the background (average H3K4me3 signal) and dividing by the average signal for the DMSO controls. α-KG competition tests were performed using 150 nM H3K4me3 peptide and 50 μM Fe(II).
AlphaScreen technology (Perkin Elmer) was utilized to perform a screen for small molecule inhibitors of KDM5A. The assay was comprised of two steps, a demethylation reaction followed by detection of the product. A biotinylated H3K4me3 peptide was used as substrate in the demethylation reaction with KDM5A in the presence or absence of small molecule inhibitors. The presence of peptide product (H3K4me1/2) was detected using a product-specific antibody and beads. For this, acceptor beads coated in protein A bound to the antibody, which recognized the peptide product. Donor beads coated in streptavidin bound biotin on the peptide substrate. […]

KDM5C = target: T2, KDM5C (Homo sapiens, UniProt P41229); assay: AlphaScreen KDM5C demethylation assay; assay type: biochemical
T2 construct: FLAG; made in house
Description: as §1, §2

ZR-75-1 cells = assay: WST-1 cell proliferation assay, ZR-75-1; assay type: cell-based, human; conditions: ZR-75-1, 5 days of treatment
Description: WST-1 reagent from Roche Applied Sciences (11644807001) was used to measure cell number before drug addition and after 3 or 5 days of growth using previously described methods (Sayegh et al., 2013, J. Biol. Chem. 9408-9417). Cells were seeded in 96-well plates at the following number of cells per well: HeLa (2000), MCF7 (2000), ZR-75-1 (1000), MCF10A (1000), MDA-MB-231(5000). Assays were performed in technical quadruplicates and biological triplicates. DMSO was used at 0.1%. Relative absorbance was calculated by subtracting the average background (media only) signal, dividing by the average signal on day 0, and then dividing by the average day 5/day 0 ratio for the DMSO controls. Significance was calculated by unpaired, two-tailed student's t-test using GraphPad Prism 6.0 software.

HeLa cells = assay: Colony formation assay, HeLa; assay type: cell-based, human
Description: (§3) Cells were seeded in 6-well plates at low density: HeLa, MCF7, BT474, and PC9 cells at 1000, 2000, 2500, and 2000 cells/well respectively. Media containing the prescribed drugs or 0.1% DMSO was replaced every 3 days. Trastuzumab was used at 5 μg/ml. Gefitinib was used at 2 μM. YUKA1 was used at 50 or 100 μM. Doxycycline was used at 1 μg/ml for 3 days. After 7-42 days depending on the rate of cell growth, cells were fixed in 4% para-formaldehyde in phosphate-buffered saline for 10 minutes rocking at room temperature. They were incubated in 0.05% crystal violet in double-distilled water for 30 minutes rocking at room temperature, washed with water, and dried 24 hours before photographing. ColonyArea, a plugin for ImageJ software, was used for quantification (Guzman et al., 2014, PloS One 9:e92444). Unpaired, two-tailed student's t-test was used to determine significance using GraphPad Prism 6.0 software.
HeLa (FIG. 11A) and MDA-MB231 cells (FIG. 11B) were treated with DMSO, 5 μM KDMS-C70 or 50 or 100 μM YUKA1 in colony-formation assays. The tables in FIGS. 11C and 11D depict the quantification of experimental data.

BT474 cells = assay: Colony formation assay, BT474 (trastuzumab tolerance); assay type: cell-based, human
Description: as §3

T1 sequence (P29375 whole entry): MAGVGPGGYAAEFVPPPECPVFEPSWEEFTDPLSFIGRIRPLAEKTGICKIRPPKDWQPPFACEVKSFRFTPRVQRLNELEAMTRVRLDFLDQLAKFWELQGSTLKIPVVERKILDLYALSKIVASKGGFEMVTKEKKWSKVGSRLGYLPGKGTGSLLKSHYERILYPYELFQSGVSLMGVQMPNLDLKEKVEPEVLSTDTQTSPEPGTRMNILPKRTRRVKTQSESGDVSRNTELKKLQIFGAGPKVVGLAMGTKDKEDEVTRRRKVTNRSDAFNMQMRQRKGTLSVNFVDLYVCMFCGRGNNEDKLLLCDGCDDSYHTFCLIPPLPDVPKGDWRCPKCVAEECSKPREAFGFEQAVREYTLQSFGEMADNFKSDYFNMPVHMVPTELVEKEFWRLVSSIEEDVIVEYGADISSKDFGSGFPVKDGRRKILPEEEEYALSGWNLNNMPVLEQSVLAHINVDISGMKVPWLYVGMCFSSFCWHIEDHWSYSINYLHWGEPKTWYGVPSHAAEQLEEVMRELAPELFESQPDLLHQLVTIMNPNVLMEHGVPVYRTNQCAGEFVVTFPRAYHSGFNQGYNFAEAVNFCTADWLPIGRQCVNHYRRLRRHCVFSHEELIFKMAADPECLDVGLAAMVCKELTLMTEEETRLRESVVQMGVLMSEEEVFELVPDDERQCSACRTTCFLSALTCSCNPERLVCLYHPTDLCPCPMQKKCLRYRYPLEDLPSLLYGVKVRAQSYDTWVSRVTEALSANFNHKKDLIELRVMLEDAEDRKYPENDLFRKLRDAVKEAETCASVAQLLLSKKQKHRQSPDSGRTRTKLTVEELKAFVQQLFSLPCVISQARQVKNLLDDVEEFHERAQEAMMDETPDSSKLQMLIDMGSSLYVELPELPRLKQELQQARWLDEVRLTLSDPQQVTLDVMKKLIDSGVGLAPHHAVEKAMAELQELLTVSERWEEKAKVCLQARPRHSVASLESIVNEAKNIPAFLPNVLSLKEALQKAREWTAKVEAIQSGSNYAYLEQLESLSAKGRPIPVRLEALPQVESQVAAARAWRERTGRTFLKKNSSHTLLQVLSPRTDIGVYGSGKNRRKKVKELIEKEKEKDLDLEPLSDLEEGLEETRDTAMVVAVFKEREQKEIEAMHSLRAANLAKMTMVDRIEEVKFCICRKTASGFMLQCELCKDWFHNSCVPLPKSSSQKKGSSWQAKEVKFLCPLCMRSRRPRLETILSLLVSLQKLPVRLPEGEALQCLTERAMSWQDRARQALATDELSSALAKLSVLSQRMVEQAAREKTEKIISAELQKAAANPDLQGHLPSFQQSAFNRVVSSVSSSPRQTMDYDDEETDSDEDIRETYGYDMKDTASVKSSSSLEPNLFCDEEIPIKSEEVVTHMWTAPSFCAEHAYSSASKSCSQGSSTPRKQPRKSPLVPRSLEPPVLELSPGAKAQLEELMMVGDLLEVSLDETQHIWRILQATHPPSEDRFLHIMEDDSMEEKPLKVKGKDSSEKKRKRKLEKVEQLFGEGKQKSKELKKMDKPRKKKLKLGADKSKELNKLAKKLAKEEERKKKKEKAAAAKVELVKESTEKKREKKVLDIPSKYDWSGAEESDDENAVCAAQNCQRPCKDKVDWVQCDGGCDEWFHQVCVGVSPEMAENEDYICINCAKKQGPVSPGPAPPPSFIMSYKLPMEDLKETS
T2 sequence (P41229 whole entry): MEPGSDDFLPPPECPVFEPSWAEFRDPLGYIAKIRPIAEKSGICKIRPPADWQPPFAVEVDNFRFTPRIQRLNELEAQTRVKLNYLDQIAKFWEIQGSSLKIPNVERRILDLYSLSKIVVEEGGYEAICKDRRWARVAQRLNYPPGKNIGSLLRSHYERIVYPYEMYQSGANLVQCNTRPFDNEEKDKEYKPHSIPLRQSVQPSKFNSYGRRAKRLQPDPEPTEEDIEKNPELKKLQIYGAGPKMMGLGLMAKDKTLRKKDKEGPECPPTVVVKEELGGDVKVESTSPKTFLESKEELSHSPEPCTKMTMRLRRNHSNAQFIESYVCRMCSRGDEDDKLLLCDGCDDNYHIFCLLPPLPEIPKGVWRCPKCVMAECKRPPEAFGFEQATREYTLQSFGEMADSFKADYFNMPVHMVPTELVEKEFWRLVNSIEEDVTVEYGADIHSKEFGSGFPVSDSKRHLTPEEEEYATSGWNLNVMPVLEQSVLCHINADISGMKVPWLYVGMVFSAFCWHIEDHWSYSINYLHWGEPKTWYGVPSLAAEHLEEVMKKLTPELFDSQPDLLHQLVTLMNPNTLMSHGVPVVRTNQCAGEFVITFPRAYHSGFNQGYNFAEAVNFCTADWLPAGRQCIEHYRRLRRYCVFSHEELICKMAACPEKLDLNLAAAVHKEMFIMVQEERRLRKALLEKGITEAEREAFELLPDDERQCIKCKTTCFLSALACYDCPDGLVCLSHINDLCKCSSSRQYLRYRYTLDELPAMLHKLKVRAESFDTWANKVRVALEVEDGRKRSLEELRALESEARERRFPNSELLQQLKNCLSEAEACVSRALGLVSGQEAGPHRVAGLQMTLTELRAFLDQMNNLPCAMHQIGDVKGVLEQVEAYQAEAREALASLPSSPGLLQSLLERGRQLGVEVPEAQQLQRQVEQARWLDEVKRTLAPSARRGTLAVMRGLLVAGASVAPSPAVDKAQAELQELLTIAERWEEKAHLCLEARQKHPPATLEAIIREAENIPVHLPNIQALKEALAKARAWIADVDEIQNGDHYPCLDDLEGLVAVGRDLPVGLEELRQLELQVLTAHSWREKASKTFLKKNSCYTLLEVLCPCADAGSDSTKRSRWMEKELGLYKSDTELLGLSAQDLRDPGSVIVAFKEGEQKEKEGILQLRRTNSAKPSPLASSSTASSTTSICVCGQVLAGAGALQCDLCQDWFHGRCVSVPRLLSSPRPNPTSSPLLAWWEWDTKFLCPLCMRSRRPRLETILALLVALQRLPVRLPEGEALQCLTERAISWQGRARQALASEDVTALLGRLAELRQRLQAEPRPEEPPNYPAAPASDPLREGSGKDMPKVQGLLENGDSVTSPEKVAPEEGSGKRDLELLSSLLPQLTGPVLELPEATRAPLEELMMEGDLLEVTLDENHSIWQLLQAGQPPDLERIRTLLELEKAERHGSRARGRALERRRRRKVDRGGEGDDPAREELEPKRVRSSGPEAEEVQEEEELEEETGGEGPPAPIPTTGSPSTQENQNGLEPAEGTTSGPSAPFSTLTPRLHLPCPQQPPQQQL

Q: Which results are given for `C=CCOc1c(CNn2cnnc2S)cccc1OC` [YUKA1, 4-([2-(allyloxy)-3-methoxybenzyl]amino)-4H-1,2,4-triazole-3-thiol]?
A: mode of KDM5A inhibition with respect to Fe(II) (full-length FLAG-KDM5A): uncompetitive with respect to Fe(II); KDM5A enzyme inhibition at low Fe(II) (full-length FLAG-KDM5A; 5 μM Fe(II)): too weak to generate robust IC50 curves; effect of catalase on inhibitory potency against KDM5A (full-length FLAG-KDM5A; 0.01 mg/ml catalase): did not affect the inhibitory potency; IC50 (full-length FLAG-KDM5A; 0.05-50 μM compound, 1 hour reactions, read-out: average in vitro IC50 against KDM5A): 2660 nM; change of KDM5A IC50 with α-KG concentration (full-length FLAG-KDM5A; 16-fold range of α-KG, 150 nM H3K4me3 peptide, 50 μM Fe(II)): did not change significantly; IC50 (full-length FLAG-KDM5A; inhibitors found by high throughput screening, read-out: KDM5A IC50): 1320 nM; fold less active against KDM5C (vs KDM5A) (KDM5C): ~3 fold; cell proliferation (ZR-75-1 cells): decreased cell proliferation during 5 days of treatment in a dose-dependent manner; growth in colony-formation assay (HeLa cells; 5 μM KDMS-C70 or 50 or 100 μM YUKA1): suppresses growth; number of colonies formed vs DMSO control (HeLa cells; two-week treatment): significantly reduced; cell growth, compound alone (BT474 cells; BT474, compound alone): not changed; emergence of colonies under trastuzumab (BT474 cells; BT474, trastuzumab 5 μg/ml plus compound): significantly less
